The source of these data is EP2951180B1, “2,6,7,8 SUBSTITUTED PURINES AS HDM2 INHIBITORS” (Merck Sharp & Dohme Corp., priority 2013, dated 2014).

Each structure is given as a SMILES string.

For orientation: IC50 means the concentration that gives 50% inhibition.

For this assay, the target named is T1, HDM2 (Homo sapiens, UniProt Q00987).
T1 construct: Thioredoxin (N); made in house; host or cells: E. coli strain BL21(DE3)Rosetta
Kind of assay: FRET assay (HDM2 inhibition; method not described in this part). The class given is binding.

T1 sequence (Q00987 17-125): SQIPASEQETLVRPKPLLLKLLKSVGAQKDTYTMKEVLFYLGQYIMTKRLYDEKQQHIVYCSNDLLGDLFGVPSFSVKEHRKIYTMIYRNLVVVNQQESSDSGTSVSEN

Take `C[C@@H](Nc1nc(C(=O)O)nc2nc(-c3ccccc3C(N)=O)n(Cc3ccc(C(F)(F)F)cc3)c12)C1CC1` [Example 2.78, 8-(2-carbamoylphenyl)-6-{[(1R)-1-cyclopropylethyl]amino}-7-[4-(trifluoromethyl)benzyl]-7H-purine-2-carboxylic acid]: 219 nM corresponded to half-maximal inhibition (Table 2) (IC50).
Consider `C[C@@H](Nc1nc(C(=O)O)nc2nc(-c3cc(-c4cccs4)ccn3)n(Cc3ccc(C(F)(F)F)cc3)c12)C1CCC1` [Example 1.57, 6-{[(1R)-1-cyclobutylethyl]amino}-8-(4-thiophen-2-ylpyridin-2-yl)-7-[4-(trifluoromethyl)benzyl]-7H-purine-2-carboxylic acid], for which the IC50 (Table 1) came out at 5.95 nM.
Regarding `COCCCOc1ccc(C)cc1-c1nc2nc(C(=O)O)nc(N[C@H](C)C3CCC3)c2n1Cc1ccc(Cl)cc1` [Example 4.4, (R)-7-(4-chlorobenzyl)-6-((1-cyclobutylethyl)amino)-8-(2-(3-methoxypropoxy)-5-methylphenyl)-7H-purine-2-carboxylic acid], for the setting “Table 4”, inhibition was half-maximal at 48.7 nM (IC50).
The compound `C[C@@H](Nc1nc(C(=O)O)nc2nc(-c3cccc(OC(F)(F)F)c3)n(Cc3ccc(C(F)(F)F)cc3)c12)C1CC1` [Example 2.26, 6-{[(1R)-1-cyclopropylethyl]amino}-8-[3-(trifluoromethoxy)phenyl]-7-[4-(trifluoromethyl)benzyl]-7H-purine-2-carboxylic acid] came in with an IC50 (Table 2) of 550 nM.
Compound `Cc1ccc(-c2nc3nc(C(=O)O)nc(N[C@H](C)C4CCC4)c3n2Cc2ccc(C(F)(F)F)cc2)cc1F` [Example 1.102, 6-{[(1R)-1-cyclobutylethyl]amino}-8-(3-fluoro-4-methylphenyl)-7-[4-(trifluoromethyl)benzyl]-7H-purine-2-carboxylic acid] had an IC50 (Table 1) of 20.3 nM.
For the setting “Table 2”, `C[C@@H](Nc1nc(C(=O)O)nc2nc(-c3cnn(C)c3)n(Cc3ccc(C(F)(F)F)cc3)c12)C1CC1` [Example 2.35, 6-{[(1R)-1-cyclopropylethyl]amino}-8-(1-methyl-1H-pyrazol-4-yl)-7-[4-(trifluoromethyl)benzyl]-7H-purine-2-carboxylic acid] had an IC50 of 510 nM.
Take `C[C@@H](Nc1nc(C(=O)O)nc2nc(-c3cccc4c3CNC4)n(Cc3ccc(C(F)(F)F)cc3)c12)C1CCC1` [Example 1.61, 6-{[(1R)-1-cyclobutylethyl]amino}-8-(2,3-dihydro-1H-isoindol-4-yl)-7-[4-(trifluoromethyl)benzyl]-7H-purine-2-carboxylic acid]: the midpoint of inhibition (Table 1), the IC50, lay at 51.4 nM.
As for `COc1cc(C#N)cc(-c2nc3nc(C(=O)O)nc(N[C@H](C)C4CCC4)c3n2Cc2ccc(C(F)(F)F)cc2)c1` [Example 2.64, 8-(3-cyano-5-methoxyphenyl)-6-{[(1R)-1-cyclobutylethyl]amino}-7-[4-(trifluoromethyl)benzyl]-7H-purine-2-carboxylic acid], the IC50 (Table 2) turned out to be 89.1 nM.
On to `C[C@@H](Nc1nc(C(=O)O)nc2nc(-c3ccccn3)n(Cc3ccc(C(F)(F)F)cc3)c12)C1CCC1` [Example 1.16, 6-{[(1R)-1-cyclobutylethyl]amino}-8-pyridin-2-yl-7-[4-(trifluoromethyl)benzyl]-7H-purine-2-carboxylic acid], for which, for the setting “Table 1”, half-maximal inhibition (IC50) was put at 25.3 nM.
For `C[C@@H](Nc1nc(C(=O)O)nc2nc(-c3ccccc3F)n(Cc3ccc(C(F)(F)F)cc3)c12)C1CCC1` [Example 2.47, 6-{[(1R)-1-cyclobutylethyl]amino}-8-(2-fluorophenyl)-7-[4-(trifluoromethyl)benzyl]-7H-purine-2-carboxylic acid], the IC50 (Table 2) turned out to be 26 nM.
Regarding `C[C@@H](Nc1nc(C(=O)O)nc2nc(-c3ccc4nccnc4c3)n(Cc3ccc(C(F)(F)F)cc3)c12)C1CCC1` [Example 1.106, 6-{[(1R)-1-cyclobutylethyl]amino}-8-quinoxalin-6-yl-7-[4-(trifluoromethyl)benzyl]-7H-purine-2-carboxylic acid], the IC50 (Table 1) worked out at 23.5 nM.
Regarding `COc1cc(OC)cc(-c2nc3nc(C(=O)O)nc(N[C@H](C)C4CC4)c3n2Cc2ccc(C(F)(F)F)cc2)c1` [Example 2.28, 6-{[(1R)-1-cyclopropylethyl]amino}-8-(3,5-dimethoxyphenyl)-7-[4-(trifluoromethyl)benzyl]-7H-purine-2-carboxylic acid], under “Table 2”, the IC50 turned out to be 455 nM.
Same read-out and setting: for `COc1cccc(-c2nc3nc(C(=O)O)nc(N[C@H](C)C4CCC4)c3n2Cc2ccc(C(F)(F)F)cc2)c1` [Example 2.1, (R)-6-((1-cyclobutylethyl)amino)-8-(3-methoxyphenyl)-7-(4-(trifluoromethyl)benzyl)-7H-purine-2-carboxylic acid] the value was 37.5 nM; for `Cc1ccc(-c2nc3nc(C(=O)O)nc(N[C@H](C)C4CC4)c3n2Cc2ccc(C(F)(F)F)cc2)c(C)c1` [Example 2.52, 6-{[(1R)-1-cyclopropylethyl]amino}-8-(2,4-dimethylphenyl)-7-[4-(trifluoromethyl)benzyl]-7H-purine-2-carboxylic acid], 309 nM.
With `C[C@@H](Nc1nc(C(=O)O)nc2nc(-c3cc(C4CCCC4)ccn3)n(Cc3ccc(C(F)(F)F)cc3)c12)C1CCC1` [Example 1.55, 6-{[(1R)-1-cyclobutylethyl]amino}-8-(4-cyclopentylpyridin-2-yl)-7-[4-(trifluoromethyl)benzyl]-7H-purine-2-carboxylic acid], for the setting “Table 1”, the IC50 was found to be 4.77 nM.
`C[C@@H](Nc1nc(C(=O)O)nc2nc(-c3ccc(F)c(Cl)c3)n(Cc3ccc(C(F)(F)F)cc3)c12)C1CCC1` [Example 2.61, 8-(3-chloro-4-fluorophenyl)-6-{ [(1R)-1-cyclobutylethyl]amino}-7-[4-(trifluoromethyl)benzyl]-7H-purine-2-carboxylic acid] yielded an IC50 (Table 2) of 22.7 nM.
On to `C[C@@H](Nc1nc(C(=O)O)nc2nc(-c3ccc(OC(F)F)cn3)n(Cc3ccc(C(F)(F)F)cc3)c12)C1CCC1` [Example 1.66, 6-{[(1R)-1-cyclobutylethyl]amino}-8-[5-(difluoromethoxy)pyridin-2-yl]-7-[4-(trifluoromethyl)benzyl]-7H-purine-2-carboxylic acid], for which the IC50 (Table 1) is 58.4 nM.
With `C[C@@H](Nc1nc(C(=O)O)nc2nc(Cc3ccccc3)n(Cc3ccc(C(F)(F)F)cc3)c12)C1CCC1` [Example 2.3, (R)-8-benzyl-6-((1-cyclobutylethyl)amino)-7-(4-(trifluoromethyl)benzyl)-7H-purine-2-carboxylic acid], under “Table 2”, it took 3.66 nM to reach half-maximal inhibition (IC50).
Still for that read-out and setting: for `C[C@@H](Nc1nc(C(=O)O)nc2nc(-c3cccc(C#N)c3)n(Cc3ccc(C(F)(F)F)cc3)c12)C1CCC1` [Example 2.45, 8-(3-cyanophenyl)-6-{[(1R)-1-cyclobutylethyl]amino}-7-[4-(trifluoromethyl)benzyl]-7H-purine-2-carboxylic acid] the value was 63 nM.
As to `Cc1cc(C)cc(-c2nc3nc(C(=O)O)nc(N[C@H](C)C4CCC4)c3n2Cc2ccc(C(F)(F)F)cc2)c1` [Example 1.131, 6-{[(1R)-1-cyclobutylethyl]amino}-8-(3,5-dimethylphenyl)-7-[4-(trifluoromethyl)benzyl]-7H-purine-2-carboxylic acid], the IC50 (Table 1) is 369 nM.
The same measure, in the same setting: for `CCOc1ccc(C)cc1-c1nc2nc(C(=O)O)nc(N[C@H](C)C3CCC3)c2n1Cc1ccc(C(F)(F)F)cc1` [Example 1.138, 6-{[(1R)-1-cyclobutylethyl]amino}-8-(2-ethoxy-5-methylphenyl)-7-[4-(trifluoromethyl)benzyl]-7H-purine-2-carboxylic acid] the value was 15.8 nM.
